Experimental data taken from the NIST ThermoML archive (doi:10.1016/j.fluid.2014.10.002).
Where “and” joins values, the source holds several entries; their conditions need not be identical. Equal entries are not always repeated.

Settings: Liquid, Vibrating wire viscometry

CCCCC(CC)COC(=O)c1ccc(C(=O)OCC(CC)CCCC)c(C(=O)OCC(CC)CCCC)c1 (stereo unspecified) [tris(2-ethylhexyl) trimellitate]
Settings	viscosity
343.14 K, 49870 kPa	53.82 mPa·s and 53.79 mPa·s
343.14 K, 50340 kPa	53.74 mPa·s
343.14 K, 50350 kPa	53.88 mPa·s
343.14 K, 50360 kPa	53.81 mPa·s and 53.95 mPa·s and 53.91 mPa·s
343.14 K, 65050 kPa	68.46 mPa·s
343.14 K, 65060 kPa	68.25 mPa·s
343.14 K, 65070 kPa	68.22 mPa·s
343.14 K, 65080 kPa	68.37 mPa·s
343.14 K, 65100 kPa	68.38 mPa·s
343.15 K, 1040 kPa	22.81 mPa·s
343.15 K, 1050 kPa	22.74 mPa·s
343.15 K, 1060 kPa	22.78 mPa·s
343.15 K, 1070 kPa	22.74 mPa·s
343.15 K, 1090 kPa	22.81 mPa·s
343.15 K, 2540 kPa	23.48 mPa·s and 23.4 mPa·s
343.15 K, 2580 kPa	23.42 mPa·s
343.15 K, 4800 kPa	24.49 mPa·s
343.15 K, 4820 kPa	24.51 mPa·s
343.15 K, 4880 kPa	24.44 mPa·s
343.15 K, 4900 kPa	24.44 mPa·s and 24.52 mPa·s and 24.43 mPa·s
343.15 K, 7530 kPa	25.82 mPa·s
343.15 K, 7590 kPa	25.76 mPa·s
343.15 K, 7630 kPa	25.78 mPa·s
343.15 K, 7650 kPa	25.77 mPa·s
343.15 K, 10140 kPa	27.08 mPa·s
343.15 K, 15040 kPa	29.65 mPa·s and 29.63 mPa·s
343.15 K, 15050 kPa	29.64 mPa·s
343.15 K, 15060 kPa	29.74 mPa·s
343.15 K, 15070 kPa	29.73 mPa·s
343.15 K, 15090 kPa	29.74 mPa·s
358.18 K, 2460 kPa	14.15 mPa·s
358.18 K, 2470 kPa	14.13 mPa·s
358.18 K, 2480 kPa	14.11 mPa·s
358.18 K, 2490 kPa	14.11 mPa·s
358.18 K, 2500 kPa	14.16 mPa·s
358.18 K, 2530 kPa	14.14 mPa·s
358.18 K, 4840 kPa	14.65 mPa·s
358.18 K, 4860 kPa	14.68 mPa·s
358.18 K, 4920 kPa	14.69 mPa·s
358.18 K, 4960 kPa	14.64 mPa·s
358.18 K, 4990 kPa	14.64 mPa·s
358.18 K, 7360 kPa	15.35 mPa·s
358.18 K, 7370 kPa	15.37 mPa·s
358.18 K, 7390 kPa	15.35 mPa·s
358.18 K, 7410 kPa	15.34 mPa·s
358.18 K, 7420 kPa	15.37 mPa·s and 15.38 mPa·s
358.18 K, 10350 kPa	16.11 mPa·s
358.18 K, 10380 kPa	16.12 mPa·s
358.18 K, 10410 kPa	16.11 mPa·s
358.18 K, 15320 kPa	17.52 mPa·s
358.18 K, 20050 kPa	18.99 mPa·s
358.18 K, 20070 kPa	19.03 mPa·s and 18.97 mPa·s
358.18 K, 20090 kPa	18.99 mPa·s
358.18 K, 20120 kPa	18.99 mPa·s
358.18 K, 20130 kPa	19.05 mPa·s
358.18 K, 40240 kPa	26.25 mPa·s
358.18 K, 40250 kPa	26.27 mPa·s
358.18 K, 40260 kPa	26.24 mPa·s
358.18 K, 40280 kPa	26.21 mPa·s
358.18 K, 40290 kPa	26.24 mPa·s
358.19 K, 1290 kPa	13.79 mPa·s
358.19 K, 1330 kPa	13.79 mPa·s
358.19 K, 1380 kPa	13.85 mPa·s
358.19 K, 10470 kPa	16.13 mPa·s
358.19 K, 15340 kPa	17.51 mPa·s
358.19 K, 15360 kPa	17.51 mPa·s
358.19 K, 15370 kPa	17.52 mPa·s
358.19 K, 15390 kPa	17.53 mPa·s
358.19 K, 15410 kPa	17.54 mPa·s
358.19 K, 30310 kPa	22.42 mPa·s
358.19 K, 30360 kPa	22.4 mPa·s
358.19 K, 30380 kPa	22.43 mPa·s and 22.47 mPa·s and 22.46 mPa·s
358.19 K, 50360 kPa	30.62 mPa·s
358.19 K, 50380 kPa	30.63 mPa·s
358.19 K, 50390 kPa	30.61 mPa·s
358.19 K, 50400 kPa	30.65 mPa·s
358.19 K, 50420 kPa	30.65 mPa·s
358.19 K, 65540 kPa	38.26 mPa·s
358.19 K, 65550 kPa	38.23 mPa·s
358.19 K, 65570 kPa	38.28 mPa·s
358.19 K, 65600 kPa	38.23 mPa·s
358.19 K, 65610 kPa	38.23 mPa·s
373.17 K, 1070 kPa	8.988 mPa·s and 8.981 mPa·s and 8.984 mPa·s
373.17 K, 1080 kPa	8.99 mPa·s
373.17 K, 2690 kPa	9.227 mPa·s
373.17 K, 2720 kPa	9.242 mPa·s
373.17 K, 2730 kPa	9.241 mPa·s
373.17 K, 5100 kPa	9.651 mPa·s
373.17 K, 5110 kPa	9.649 mPa·s and 9.654 mPa·s
373.17 K, 5120 kPa	9.651 mPa·s
373.17 K, 5130 kPa	9.669 mPa·s
373.17 K, 5140 kPa	9.653 mPa·s
373.17 K, 7440 kPa	10.06 mPa·s
373.17 K, 7470 kPa	10.05 mPa·s
373.17 K, 7480 kPa	10.03 mPa·s
373.17 K, 7500 kPa	10.03 mPa·s
373.17 K, 10430 kPa	10.53 mPa·s
373.17 K, 10450 kPa	10.57 mPa·s
373.17 K, 15160 kPa	11.29 mPa·s
373.17 K, 15180 kPa	11.28 mPa·s
373.17 K, 15210 kPa	11.32 mPa·s and 11.33 mPa·s and 11.27 mPa·s
373.17 K, 65290 kPa	23.71 mPa·s
373.18 K, 2460 kPa	9.209 mPa·s and 9.224 mPa·s and 9.213 mPa·s
373.18 K, 2470 kPa	9.234 mPa·s
373.18 K, 2500 kPa	9.245 mPa·s
373.18 K, 2710 kPa	9.252 mPa·s
373.18 K, 10440 kPa	10.57 mPa·s
373.18 K, 10450 kPa	10.52 mPa·s
373.18 K, 10460 kPa	10.56 mPa·s
373.18 K, 20250 kPa	12.27 mPa·s and 12.26 mPa·s
373.18 K, 20260 kPa	12.27 mPa·s
373.18 K, 20270 kPa	12.29 mPa·s
373.18 K, 20290 kPa	12.3 mPa·s
373.18 K, 20320 kPa	12.28 mPa·s
373.18 K, 29980 kPa	14.31 mPa·s
373.18 K, 29990 kPa	14.32 mPa·s
373.18 K, 30000 kPa	14.27 mPa·s
373.18 K, 30010 kPa	14.3 mPa·s
373.18 K, 30030 kPa	14.28 mPa·s
373.18 K, 40130 kPa	16.58 mPa·s
373.18 K, 40140 kPa	16.57 mPa·s
373.18 K, 40150 kPa	16.63 mPa·s
373.18 K, 40170 kPa	16.61 mPa·s
373.18 K, 40190 kPa	16.64 mPa·s
373.18 K, 50280 kPa	19.18 mPa·s
373.18 K, 50290 kPa	19.21 mPa·s and 19.23 mPa·s
373.18 K, 50310 kPa	19.17 mPa·s
373.18 K, 50320 kPa	19.23 mPa·s
373.18 K, 65330 kPa	23.7 mPa·s
373.18 K, 65350 kPa	23.72 mPa·s
373.18 K, 65370 kPa	23.68 mPa·s
